Consider 57 molecules from patent US20190110476A1, “NOVEL ISOTHIAZOLAMIDES, PROCESSES FOR THEIR PREPARATION AND THEIR USE AS FUNGICIDES” (priority 2014, published 2019).

A short description of the data set: Measurement of LogP values by HPLC on reversed phase columns (EEC directive 79/831 Annex V.A8). Type of data set: physicochemical. The procedure, abridged:
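Following EEC directive 79/831 Annex V.A8, lipophilicity was derived from retention on reversed-phase HPLC columns. Separate values are given per diastereoisomer, and UV lambda-max (200–400 nm) was read at the peak signals.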

`O=C(NCc1ccccc1F)c1snc(N(S(=O)(=O)c2ccccc2)S(=O)(=O)c2ccccc2)c1Cl` [II-012]: the “LogP [a]” value is 4.15^[a].

For `COc1ccc2c(c1)CCCN2C(=O)c1snc(N)c1Cl` [II-017], the “LogP [a]” value was 2.11 and the “LogP [b]” value came to 2.06.

For the molecule `Nc1nsc(C(=O)N2CCCc3ccc(C(F)(F)F)cc32)c1Cl` [II-018], the “LogP [a]” value is 2.78 and the “LogP [b]” value is on record as 2.71.

Take `Nc1nsc(C(=O)N2CCc3cc(F)ccc3C2)c1Cl` [II-019]: the “LogP [a]” value is recorded as 2.09 and the “LogP [b]” value came to 2.05.

`Nc1nsc(C(=O)N2CCc3ccccc3C2)c1Cl` [II-020]: the “LogP [a]” value was 2.02 and the “LogP [b]” value was determined as 1.98.

In the case of `Cc1cccc2c1N(C(=O)c1snc(N)c1Cl)CCC2` [II-021], the “LogP [a]” value is on record as 2.43 and the “LogP [b]” value is on record as 2.36.

For `Nc1nsc(C(=O)N2CCc3c(Cl)ccc(Cl)c3C2)c1Cl` [II-022], the “LogP [a]” value was found to be 2.88 and the “LogP [b]” value is given as 2.82.

With `COc1ccc(CNc2nsc(C(=O)NC(C)Cc3ccc(Cl)cc3)c2Cl)cc1` (stereo not drawn) [II-023], the “LogP [a]” value was 4.32^[a].

For `C[C@H](NC(=O)c1snc(N=CN2CCCC2)c1Cl)C1CCCCC1` [II-024], the “LogP [a]” value was 2.73^[a].

Turning to `C[C@H](NC(=O)c1snc(N=CN(C)C)c1Cl)C1CCCCC1` [II-025], the “LogP [a]” value is 3.13^[a].

Consider `Nc1nsc(C(=O)N2CCCc3cc(Cl)ccc32)c1Cl` [II-026], for which the “LogP [a]” value was 2.66 and the “LogP [b]” value is listed as 2.60.

For the molecule `CC(Cc1ccc(Cl)cc1)NC(=O)c1snc(N)c1Cl` (stereo not drawn) [II-027], the “LogP [a]” value is 2.68^[a].

`Nc1nsc(C(=O)N2CCc3ccccc32)c1Cl` [II-029]: the “LogP [a]” value stood at 2.08 and the “LogP [b]” value is given as 2.03.

As to `O=C(NCc1ccc(Cl)cc1)c1snc(N=CN2CCCC2)c1Cl` [II-030], the “LogP [a]” value was 2.17^[a].

Consider `CN(C)C=Nc1nsc(C(=O)NCc2ccc(Cl)cc2)c1Cl` [II-031], for which the “LogP [a]” value was 2.41^[a].

Turning to `CS(C)=Nc1nsc(C(=O)NCC2CCCCC2)c1Cl` [II-032], the “LogP [a]” value is 1.82^[a].

As for `O=C(NCC1CCCCC1)c1snc(N=S2CCCC2)c1Cl` [II-033], the “LogP [a]” value is 2.15^[a].

As for `O=C(NC1CCCC2CCCCC21)c1snc(N=CN2CCCC2)c1Cl` (stereo not drawn) [II-036], the “LogP [a]” value is 3.52^[a].

In the case of `O=C(NC1CCCC2CCCCC21)c1snc(N=CN2CCCC2)c1Cl` (stereo not drawn) [II-037], the “LogP [a]” value was 3.83^[a].

As to `CN(C)C=Nc1nsc(C(=O)NC2CCCC3CCCCC32)c1Cl` (stereo not drawn) [II-038], the “LogP [a]” value is 3.94^[a].

For the molecule `CS(C)=Nc1nsc(C(=O)NCc2ccc(F)cc2F)c1Cl` [II-041], the “LogP [a]” value was 1.38^[a].

For the molecule `O=C(NCc1ccc(F)cc1F)c1snc(N=S2CCCC2)c1Cl` [II-042], the “LogP [a]” value is 1.64^[a].

Take `CS(C)=Nc1nsc(C(=O)NCc2c(F)cc(F)cc2F)c1Cl` [II-043]: the “LogP [a]” value is 1.42^[a].

Turning to `O=C(NCc1c(F)cc(F)cc1F)c1snc(N=S2CCCC2)c1Cl` [II-044], the “LogP [a]” value was 1.66^[a].

On to `O=C(NCc1cc(F)c(F)c(F)c1)c1snc(N=S2CCCC2)c1Cl` [II-045], for which the “LogP [a]” value was 1.96^[a].

Regarding `CS(C)=Nc1nsc(C(=O)NCc2cc(F)c(F)c(F)c2)c1Cl` [II-046], the “LogP [a]” value is 1.68^[a].

For the molecule `CS(C)=Nc1nsc(C(=O)NCc2ccc(F)c(F)c2F)c1Cl` [II-047], the “LogP [a]” value is 1.57^[a].

Regarding `O=C(NCc1ccc(F)c(F)c1F)c1snc(N=S2CCCC2)c1Cl` [II-048], the “LogP [a]” value was 1.83^[a].

For the molecule `CS(C)(=O)=Nc1nsc(C(=O)NCC2CCCCC2)c1Cl` [II-049], the “LogP [a]” value is 2.47^[a].

`Cc1ccc(S(C)=Nc2nsc(C(=O)NCC3CCCCC3)c2Cl)cc1` (stereo not drawn) [II-050]: the “LogP [a]” value was 3.51^[a].

`CNS(=O)(=O)Nc1nsc(C(=O)NCC2CCCCC2)c1Cl` [II-051]: the “LogP [a]” value is 2.38^[a].

Turning to `CCS(CC)=Nc1nsc(C(=O)NCC2CCCCC2)c1Cl` [II-052], the “LogP [a]” value is 2.00^[a].

Consider `CS(C)=Nc1nsc(C(=O)NCC2CCCCC2)c1F` [II-053], for which the “LogP [a]” value is 1.53^[a].

Take `Cc1ccc(S(C)=Nc2nsc(C(=O)NCC3CCCCC3)c2F)cc1` (stereo not drawn) [II-054]: the “LogP [a]” value was 3.10^[a].

Turning to `O=C(NCC1CCCCC1)c1snc(N=S2CCCC2)c1F` [II-055], the “LogP [a]” value is 1.72^[a].

As for `CS(C)=Nc1nsc(C(=O)NCc2ccc(F)cc2F)c1F` [II-057], the “LogP [a]” value is 1.30^[a].

With `Cc1ccc(S(C)=Nc2nsc(C(=O)NCc3ccc(F)cc3F)c2F)cc1` (stereo not drawn) [II-058], the “LogP [a]” value is 2.74^[a].

Regarding `O=C(NCc1ccc(F)cc1F)c1snc(N=S2CCCC2)c1F` [II-059], the “LogP [a]” value was 1.57^[a].

`CS(C)=Nc1nsc(C(=O)NCC2CCCC2)c1F` [II-061]: the “LogP [a]” value was 0.32^[a].

Consider `COc1ccc(CNc2nsc(C(=O)N3CCCc4ccc(C(F)(F)F)cc43)c2Cl)cc1` [II-062], for which the “LogP [a]” value is 4.37 and the “LogP [b]” value is listed as 4.25.

Turning to `COc1ccc(CNc2nsc(C(=O)N3CCCc4cc(OC)ccc43)c2Cl)cc1` [II-063], the “LogP [a]” value was 3.72^[a].

Consider `COc1ccc(CNc2nsc(C(=O)N3CCc4ccccc4C3)c2Cl)cc1` [II-064], for which the “LogP [a]” value is 3.68^[a].

`COc1ccc(CNc2nsc(C(=O)N3CCc4cc(F)ccc4C3)c2Cl)cc1` [II-065]: the “LogP [a]” value was 3.73^[a].

Turning to `COc1ccc(CNc2nsc(C(=O)N3CCCc4cc(Cl)ccc43)c2Cl)cc1` [II-066], the “LogP [a]” value was 4.37^[a].

Consider `COc1ccc(CNc2nsc(C(=O)N3CCCc4cccc(C)c43)c2Cl)cc1` [II-067], for which the “LogP [a]” value is reported as 4.24 and the “LogP [b]” value is given as 4.14.

With `COc1ccc(CNc2nsc(C(=O)N3CCc4c(Cl)ccc(Cl)c4C3)c2Cl)cc1` [II-068], the “LogP [a]” value was 4.66 and the “LogP [b]” value was determined as 4.55.

In the case of `COc1ccc(CNc2nsc(C(=O)N3CCc4ccccc43)c2Cl)cc1` [II-069], the “LogP [a]” value was found to be 3.83 and the “LogP [b]” value stood at 3.76.

In the case of `CS(C)=Nc1nsc(C(=O)NCC2CCCO2)c1F` (stereo not drawn) [II-070], the “LogP [a]” value was 0.44^[a].

On to `CS(C)=Nc1nsc(C(=O)NCC2CCOC2)c1F` (stereo not drawn) [II-071], for which the “LogP [a]” value is 0.26^[a].

As to `CS(C)=Nc1nsc(C(=O)NCc2cc(F)c(F)cc2F)c1F` [II-072], the “LogP [a]” value is 1.43^[a].

For the molecule `Cc1ccc(S(C)=Nc2nsc(C(=O)NCc3cc(F)c(F)cc3F)c2F)cc1` (stereo not drawn) [II-073], the “LogP [a]” value is 2.87^[a].

`O=C(NCc1cc(F)c(F)cc1F)c1snc(N=S2CCCC2)c1F` [II-074]: the “LogP [a]” value was 1.53^[a].

With `CS(C)=Nc1nsc(C(=O)NCc2ccc(F)c(F)c2F)c1F` [II-076], the “LogP [a]” value was 1.39^[a].

For the molecule `Cc1ccc(S(C)=Nc2nsc(C(=O)NCc3ccc(F)c(F)c3F)c2F)cc1` (stereo not drawn) [II-077], the “LogP [a]” value was 2.73^[a].

For the molecule `O=C(NCc1ccc(F)c(F)c1F)c1snc(N=S2CCCC2)c1F` [II-078], the “LogP [a]” value was 1.55^[a].

In the case of `CS(C)=Nc1nsc(C(=O)NCc2c(F)cc(F)cc2F)c1F` [II-079], the “LogP [a]” value was 1.40^[a].

Turning to `Cc1ccc(S(C)=Nc2nsc(C(=O)NCc3c(F)cc(F)cc3F)c2F)cc1` (stereo not drawn) [II-080], the “LogP [a]” value was 2.63^[a].
